Experimental data: patent US7175990B2, “Method of determining endometrial receptivity” (The Regents of the University of California, priority 2002, dated 2007)

Tests used:
[1] = test system: explants of the human chorionic villous tree (trophoblast L-selectin); assay: Binding of selectin ligand-coated beads to first-trimester villous explant cultures under shear stress; assay type: cell-based; settings: neoglycolipid-coated beads; cytotrophoblast column remnants and syncytiotrophoblasts
Procedure: Neoglycolipids were prepared by reductive amination of dipalmitoyl phosphatidylacetaldehyde with the aminoethyl glycoside of either sLe^x or 6-sulfo sLe^x 30 and dissolved in methanol (1 μg/μl). Blue 4-μm polystyrene latex beads (Interfacial Dynamics Corporation) were washed three times with ethanol, then resuspended in this solvent (1.2×10^8 beads/200 μl). Twenty-five micrograms of glycolipid was added, and the mixture was evaporated under nitrogen. Coated beads were washed three times in 1% BSA/PBS, then incubated with 3% BSA/PBS (2 h, room temperature). The beads were resuspended in 1 ml of 1% BSA/culture medium. Control beads were coated with phosphatidyl choline or used without coating.
Forty-eight first-trimester villous explant cultures were established (4 from 12 placentas; 2 experiments). After 24 h, the culture medium was removed, and 200 μl of a suspension of 2.4×10^7 beads in medium was added. Six explants were incubated with either experimental or control beads. Six other explants were pre-incubated with DREG-56 (30 min), then washed three times with medium before adding 6-sulfo sLe^x-coated beads. The explants were placed inside an incubator on a platform shaker (1 h; 20 cycles/min). Afterwards, bead suspensions were aspirated and explants were fixed in 3.8% paraformaldehyde (1 h, room temperature), washed three times in PBS (4° C.), and examined with a stereomicroscope. […]

[2] = test system: hatched mouse blastocysts; assay: Binding of selectin ligand-coated beads to hatched mouse blastocysts under shear stress; assay type: cell-based; settings: neoglycolipid-coated 4-μm polystyrene beads
L-selectin = settings: compared with sLe^x; cited from earlier work

Row | Compound | binding of ligand-coated beads to human villus explants / trophoblasts [1] | binding of ligand-coated beads to hatched mouse blastocysts [2] | tightness of L-selectin binding, 6-sulfo sLe^x versus sLe^x (L-selectin)
1 | CC(=O)NC1C(O)CC(OC2C(O)C(CO)OC(OC3C(CO)OC(O)C(NC(C)=O)C3OC3OC(C)C(O)C(O)C3O)C2O)(C(=O)O)OC1C(O)C(O)CO (centres unmarked) [sLe^x, Siaα2→3Galβ1→4[Fucα1→3]GlcNAc] | in fewer numbers | bound | –
2 | Siaα2→3Galβ1→4[Fucα1→3][SO3→6]GlcNAc [6-sulfo sLe^x] | bound | bound | more tightly
